Numbers after ± are expanded uncertainties.
Experiments:
[1] = refractive index (Na D-line) (dimensionless); xn = mol fraction of the nth substance listed; conditions: 100 kPa, Liquid, Standard Abbe refractometry
[2] = xn = mol fraction of the nth substance listed; conditions: 100 kPa, Liquid, Vibrating tube method

CCn1cc[n+](C)c1.O=S(=O)([O-])C(F)(F)F [1-ethyl-3-methylimidazolium trifluoromethanesulfonate] + O
refractive index ([1]; 293.15 K, x1 = 0.1001): 1.3885 ± 0.0019
refractive index ([1]; 293.15 K, x1 = 0.2002): 1.406 ± 0.0016
refractive index ([1]; 293.15 K, x1 = 0.3005): 1.4155 ± 0.0016
refractive index ([1]; 293.15 K, x1 = 0.4002): 1.421 ± 0.0017
refractive index ([1]; 293.15 K, x1 = 0.5003): 1.425 ± 0.0016
refractive index ([1]; 293.15 K, x1 = 0.5997): 1.4275 ± 0.0016
refractive index ([1]; 293.15 K, x1 = 0.6996): 1.43 ± 0.0016
refractive index ([1]; 293.15 K, x1 = 0.8011): 1.4315 ± 0.0016
refractive index ([1]; 293.15 K, x1 = 0.8992): 1.4325 ± 0.0017
refractive index ([1]; 303.15 K, x1 = 0.1001): 1.3865 ± 0.0016
refractive index ([1]; 303.15 K, x1 = 0.2002): 1.4055 ± 0.0016
refractive index ([1]; 303.15 K, x1 = 0.3005): 1.414 ± 0.0016
refractive index ([1]; 303.15 K, x1 = 0.4002): 1.4175 ± 0.0017
refractive index ([1]; 303.15 K, x1 = 0.5003): 1.423 ± 0.0016
refractive index ([1]; 303.15 K, x1 = 0.5997): 1.4255 ± 0.0016
refractive index ([1]; 303.15 K, x1 = 0.6996): 1.4275 ± 0.0016
refractive index ([1]; 303.15 K, x1 = 0.8011): 1.4295 ± 0.0016
refractive index ([1]; 303.15 K, x1 = 0.8992): 1.43 ± 0.0016
refractive index ([1]; 313.15 K, x1 = 0.1001): 1.386 ± 0.0016
refractive index ([1]; 313.15 K, x1 = 0.2002): 1.403 ± 0.0016
refractive index ([1]; 313.15 K, x1 = 0.3005): 1.412 ± 0.0016
refractive index ([1]; 313.15 K, x1 = 0.4002): 1.415 ± 0.0016
refractive index ([1]; 313.15 K, x1 = 0.5003): 1.421 ± 0.0016
refractive index ([1]; 313.15 K, x1 = 0.5997): 1.4235 ± 0.0016
refractive index ([1]; 313.15 K, x1 = 0.6996): 1.4255 ± 0.0016
refractive index ([1]; 313.15 K, x1 = 0.8011): 1.427 ± 0.0016
refractive index ([1]; 313.15 K, x1 = 0.8992): 1.4285 ± 0.0016
refractive index ([1]; 323.15 K, x1 = 0.1001): 1.3855 ± 0.0016
refractive index ([1]; 323.15 K, x1 = 0.2002): 1.4025 ± 0.0016
refractive index ([1]; 323.15 K, x1 = 0.3005): 1.411 ± 0.0016
refractive index ([1]; 323.15 K, x1 = 0.4002): 1.414 ± 0.0016
refractive index ([1]; 323.15 K, x1 = 0.5003): 1.42 ± 0.0016
refractive index ([1]; 323.15 K, x1 = 0.5997): 1.422 ± 0.0017
refractive index ([1]; 323.15 K, x1 = 0.6996): 1.4235 ± 0.0016
refractive index ([1]; 323.15 K, x1 = 0.8011): 1.4255 ± 0.0016
refractive index ([1]; 323.15 K, x1 = 0.8992): 1.426 ± 0.0017
refractive index ([1]; 333.15 K, x1 = 0.1001): 1.385 ± 0.0016
refractive index ([1]; 333.15 K, x1 = 0.2002): 1.4005 ± 0.0016
refractive index ([1]; 333.15 K, x1 = 0.3005): 1.4095 ± 0.0016
refractive index ([1]; 333.15 K, x1 = 0.4002): 1.413 ± 0.0016
refractive index ([1]; 333.15 K, x1 = 0.5003): 1.418 ± 0.0016
refractive index ([1]; 333.15 K, x1 = 0.5997): 1.418 ± 0.0016
refractive index ([1]; 333.15 K, x1 = 0.6996): 1.421 ± 0.0016
refractive index ([1]; 333.15 K, x1 = 0.8011): 1.423 ± 0.0016
refractive index ([1]; 333.15 K, x1 = 0.8992): 1.4237 ± 0.0017
refractive index ([1]; 343.15 K, x1 = 0.1001): 1.385 ± 0.0022
refractive index ([1]; 343.15 K, x1 = 0.2002): 1.3995 ± 0.0016
refractive index ([1]; 343.15 K, x1 = 0.3005): 1.409 ± 0.0016
refractive index ([1]; 343.15 K, x1 = 0.4002): 1.413 ± 0.0016
refractive index ([1]; 343.15 K, x1 = 0.5003): 1.417 ± 0.0016
refractive index ([1]; 343.15 K, x1 = 0.5997): 1.4175 ± 0.0016
refractive index ([1]; 343.15 K, x1 = 0.6996): 1.419 ± 0.0016
refractive index ([1]; 343.15 K, x1 = 0.8011): 1.421 ± 0.0017
refractive index ([1]; 343.15 K, x1 = 0.8992): 1.4215 ± 0.0017
mass density ([2]; 293.15 K, x1 = 0.1001): 1209.27 ± 2.1 kg/m3
mass density ([2]; 293.15 K, x1 = 0.2002): 1281.52 ± 2 kg/m3
mass density ([2]; 293.15 K, x1 = 0.3005): 1315.51 ± 2 kg/m3
mass density ([2]; 293.15 K, x1 = 0.4002): 1336.6 ± 2 kg/m3
mass density ([2]; 293.15 K, x1 = 0.5003): 1352.45 ± 2 kg/m3
mass density ([2]; 293.15 K, x1 = 0.5997): 1364.43 ± 2 kg/m3
mass density ([2]; 293.15 K, x1 = 0.6996): 1372.69 ± 2 kg/m3
mass density ([2]; 293.15 K, x1 = 0.8011): 1379.1 ± 2 kg/m3
mass density ([2]; 293.15 K, x1 = 0.8992): 1384.17 ± 2 kg/m3
mass density ([2]; 303.15 K, x1 = 0.1001): 1201.8 ± 2.1 kg/m3
mass density ([2]; 303.15 K, x1 = 0.2002): 1272.85 ± 2 kg/m3
mass density ([2]; 303.15 K, x1 = 0.3005): 1307.15 ± 2 kg/m3
mass density ([2]; 303.15 K, x1 = 0.4002): 1328.01 ± 2 kg/m3
mass density ([2]; 303.15 K, x1 = 0.5003): 1343.96 ± 2 kg/m3
mass density ([2]; 303.15 K, x1 = 0.5997): 1356.16 ± 2 kg/m3
mass density ([2]; 303.15 K, x1 = 0.6996): 1364.59 ± 2 kg/m3
mass density ([2]; 303.15 K, x1 = 0.8011): 1370.87 ± 2 kg/m3
mass density ([2]; 303.15 K, x1 = 0.8992): 1375.74 ± 2 kg/m3
mass density ([2]; 313.15 K, x1 = 0.1001): 1193.23 ± 2.1 kg/m3
mass density ([2]; 313.15 K, x1 = 0.2002): 1263.86 ± 2 kg/m3
mass density ([2]; 313.15 K, x1 = 0.3005): 1298.67 ± 2 kg/m3
mass density ([2]; 313.15 K, x1 = 0.4002): 1319.89 ± 2 kg/m3
mass density ([2]; 313.15 K, x1 = 0.5003): 1335.41 ± 2 kg/m3
mass density ([2]; 313.15 K, x1 = 0.5997): 1347.44 ± 2 kg/m3
mass density ([2]; 313.15 K, x1 = 0.6996): 1355.79 ± 2 kg/m3
mass density ([2]; 313.15 K, x1 = 0.8011): 1362.45 ± 2 kg/m3
mass density ([2]; 313.15 K, x1 = 0.8992): 1367.34 ± 2 kg/m3
mass density ([2]; 323.15 K, x1 = 0.1001): 1184.96 ± 2.1 kg/m3
mass density ([2]; 323.15 K, x1 = 0.2002): 1254.13 ± 2 kg/m3
mass density ([2]; 323.15 K, x1 = 0.3005): 1289.63 ± 2 kg/m3
mass density ([2]; 323.15 K, x1 = 0.4002): 1311.02 ± 2 kg/m3
mass density ([2]; 323.15 K, x1 = 0.5003): 1326.85 ± 2 kg/m3
mass density ([2]; 323.15 K, x1 = 0.5997): 1338.82 ± 2 kg/m3
mass density ([2]; 323.15 K, x1 = 0.6996): 1347.42 ± 2 kg/m3
mass density ([2]; 323.15 K, x1 = 0.8011): 1353.98 ± 2 kg/m3
mass density ([2]; 323.15 K, x1 = 0.8992): 1359.01 ± 2 kg/m3
mass density ([2]; 333.15 K, x1 = 0.1001): 1175.32 ± 2.1 kg/m3
mass density ([2]; 333.15 K, x1 = 0.2002): 1243.01 ± 2 kg/m3
mass density ([2]; 333.15 K, x1 = 0.3005): 1279.6 ± 2 kg/m3
mass density ([2]; 333.15 K, x1 = 0.4002): 1301.89 ± 2 kg/m3
mass density ([2]; 333.15 K, x1 = 0.5003): 1318.27 ± 2 kg/m3
mass density ([2]; 333.15 K, x1 = 0.5997): 1329.91 ± 2 kg/m3
mass density ([2]; 333.15 K, x1 = 0.6996): 1338.78 ± 2 kg/m3
mass density ([2]; 333.15 K, x1 = 0.8011): 1345.55 ± 2 kg/m3
mass density ([2]; 333.15 K, x1 = 0.8992): 1350.72 ± 2 kg/m3
mass density ([2]; 343.15 K, x1 = 0.1001): 1162.52 ± 2.1 kg/m3
mass density ([2]; 343.15 K, x1 = 0.2002): 1232.07 ± 2 kg/m3
mass density ([2]; 343.15 K, x1 = 0.3005): 1269.41 ± 2 kg/m3
mass density ([2]; 343.15 K, x1 = 0.4002): 1292.35 ± 2 kg/m3
mass density ([2]; 343.15 K, x1 = 0.5003): 1309.53 ± 2 kg/m3
mass density ([2]; 343.15 K, x1 = 0.5997): 1321.23 ± 2 kg/m3
mass density ([2]; 343.15 K, x1 = 0.6996): 1330.17 ± 2 kg/m3
mass density ([2]; 343.15 K, x1 = 0.8011): 1336.93 ± 2 kg/m3
mass density ([2]; 343.15 K, x1 = 0.8992): 1342.48 ± 2 kg/m3
